According to the CheMixHub ionic liquid set:
± gives the uncertainty stated by the source.

Assay: xn = mol fraction of the nth substance listed

CCCCCCCC(=O)[O-].c1c[nH+]c[nH]1 + CCO
101.3 kPa
Conditions	viscosity [mPa·s]
293.15 K, x2 = 0.1984	53.79 ± 0.64
293.15 K, x2 = 0.301	40.4 ± 0.9
293.15 K, x2 = 0.5999	14.5 ± 0.4
298.15 K, x2 = 0.8989	2.949 ± 0.087
303.15 K, x2 = 0.1043	45 ± 1
303.15 K, x2 = 0.5999	12 ± 0.29
303.15 K, x2 = 0.8989	2.686 ± 0.08
313.15 K, x2 = 0	36.92 ± 0.87
313.15 K, x2 = 0.301	21.5 ± 0.5
313.15 K, x2 = 0.5999	9.9 ± 0.25
313.15 K, x2 = 0.7006	6.9 ± 0.18
318.15 K, x2 = 0.5999	9 ± 0.23
318.15 K, x2 = 0.8989	2.125 ± 0.064

CC[n+]1ccn(C)c1.COS(=O)(=O)[O-] + CCO
viscosity [mPa·s], 101 kPa
Conditions	283.15 K	293.15 K	303.15 K	313.15 K	323.15 K
x1 = 0.0561	2.15 ± 0.07	1.77 ± 0.07	1.48 ± 0.07	1.24 ± 0.07	1.04 ± 0.07
x1 = 0.112	2.99 ± 0.07	2.44 ± 0.07	2.02 ± 0.07	1.7 ± 0.07	1.44 ± 0.07
x1 = 0.213	5.56 ± 0.08	4.37 ± 0.08	3.53 ± 0.07	2.81 ± 0.07	2.36 ± 0.07
x1 = 0.3285	9.85 ± 0.1	7.62 ± 0.09	6.01 ± 0.08	4.85 ± 0.08	3.98 ± 0.07
x1 = 0.356	11.14 ± 0.44	8.61 ± 0.1	6.78 ± 0.09	5.44 ± 0.08	4.44 ± 0.08
x1 = 0.525	23.46 ± 0.47	17.1 ± 0.45	12.99 ± 0.44	10.15 ± 0.44	8.15 ± 0.09
x1 = 0.632	38.01 ± 0.53	26.49 ± 0.48	19.73 ± 0.46	14.91 ± 0.44	11.58 ± 0.44
x1 = 0.7294	55 ± 1.9	36.84 ± 0.52	26.04 ± 0.48	19.5 ± 0.46	15 ± 0.44
x1 = 0.8202	76.5 ± 2.2	49.25 ± 0.59	33.81 ± 0.51	24.48 ± 0.47	18.59 ± 0.45
x1 = 0.9108	106.9 ± 3.2	66 ± 2	43.92 ± 0.57	30.93 ± 0.5	22.87 ± 0.47
x1 = 0.9556	124.7 ± 4	75.7 ± 2.2	49.57 ± 0.61	34.48 ± 0.52	25.22 ± 0.48
x1 = 1	141 ± 5	84.1 ± 2.4	57.9 ± 2	39.54 ± 0.55	28.33 ± 0.49

CC[n+]1ccn(CCOC)c1.O=S(=O)([O-])C(F)(F)F + CCO
101 kPa
Conditions	viscosity [mPa·s]
288.15 K, x1 = 0.2996	7.66 ± 0.28
293.15 K, x1 = 0.699	35.3 ± 1.1
293.15 K, x1 = 0.797	47.3 ± 1.3
293.15 K, x1 = 0.899	64.4 ± 1.7
298.15 K, x1 = 0.1999	3.6 ± 0.11
298.15 K, x1 = 0.797	38.9 ± 1.1
303.15 K, x1 = 0.0996	1.934 ± 0.047
303.15 K, x1 = 0.1999	3.231 ± 0.095
303.15 K, x1 = 1	57.9 ± 1.5
308.15 K, x1 = 0.603	14.85 ± 0.53
308.15 K, x1 = 0.797	26.79 ± 0.74
308.15 K, x1 = 0.899	37.34 ± 0.96
313.15 K, x1 = 0.797	22.71 ± 0.6
318.15 K, x1 = 0.797	19.43 ± 0.5

CCCCn1cc[n+](C)c1.[Cl][Fe-]([Cl])([Cl])[Cl] + CCOC(C)=O
101 kPa
Conditions	viscosity [mPa·s]
293.15 K, x1 = 0.6001	16.31 ± 0.67
298.15 K, x1 = 0.7973	26.3 ± 1.1
298.15 K, x1 = 0.9	34.2 ± 1.4
303.15 K, x1 = 0.6001	12.31 ± 0.51
303.15 K, x1 = 0.7973	22.35 ± 0.93
308.15 K, x1 = 0.1999	1.86 ± 0.08
308.15 K, x1 = 0.3999	5.26 ± 0.22
308.15 K, x1 = 0.6001	10.84 ± 0.45
308.15 K, x1 = 0.7973	19.21 ± 0.8
308.15 K, x1 = 1	31.9 ± 1.3
313.15 K, x1 = 0.1999	1.75 ± 0.07
313.15 K, x1 = 0.7973	16.68 ± 0.69
318.15 K, x1 = 0.3007	2.76 ± 0.11
318.15 K, x1 = 0.3999	4.34 ± 0.18
318.15 K, x1 = 0.9	18.34 ± 0.77

CC[S+](CC)CCOCCOCCOCC[S+](CC)CC.N#C[N-]C#N.N#C[N-]C#N + CC[n+]1ccn(C)c1.N#C[N-]C#N + O=S(=O)([N-]S(=O)(=O)C(F)(F)F)C(F)(F)F.[Li+]
100 kPa, x1 = 0.2479, x2 = 0.6613
Conditions	electrical conductivity [S/m]
298 K	0.454 ± 0.018
303 K	0.548 ± 0.022
313 K	0.811 ± 0.032
323 K	1.09 ± 0.044
333 K	1.4 ± 0.056
343 K	1.78 ± 0.071

NCC(O)CN + CC[n+]1ccn(C)c1.[Cl-]
101 kPa, x2 = 0.667
Conditions	viscosity [mPa·s]
298.15 K	280 ± 14
303.15 K	200.3 ± 9.6
313.15 K	108.2 ± 4.8
323.15 K	58.3 ± 2.5
333.15 K	38.3 ± 1.6

CC[n+]1ccn(C)c1.COS(=O)(=O)[O-] + CN1CCCC1=O
101 kPa
Conditions	viscosity [mPa·s]
298.15 K, x2 = 0.8502	4.99 ± 0.79
303.15 K, x2 = 0.3825	28 ± 4
303.15 K, x2 = 0.5291	17.6 ± 2.6
303.15 K, x2 = 0.9298	2.91 ± 0.5
308.15 K, x1 = 0.0115	1.52 ± 0.31
308.15 K, x2 = 0.6518	9.5 ± 1.4
308.15 K, x2 = 0.718	6.8 ± 1
313.15 K, x2 = 0.0861	38.1 ± 5.4

NCCO + CN1CCCC1=O + CCCC[n+]1ccn(C)c1.O=S(=O)([N-]S(=O)(=O)C(F)(F)F)C(F)(F)F
viscosity [mPa·s], 101 kPa
Conditions	293.15 K	298.15 K	303.15 K	308.15 K	313.15 K	318.15 K	323.15 K	328.15 K	333.15 K
x1 = 0.1608, x2 = 0.8154	3.357 ± 0.03	3.042 ± 0.027	2.776 ± 0.025	2.553 ± 0.023	2.364 ± 0.021	2.204 ± 0.02	2.068 ± 0.018	1.95 ± 0.017	1.848 ± 0.016
x1 = 0.2089, x2 = 0.7256	4.749 ± 0.045	4.206 ± 0.039	3.761 ± 0.035	3.388 ± 0.032	3.089 ± 0.029	2.818 ± 0.026	2.599 ± 0.024	2.41 ± 0.023	2.252 ± 0.021
x1 = 0.2436, x2 = 0.6371	6.416 ± 0.064	5.617 ± 0.056	4.959 ± 0.049	4.413 ± 0.044	3.958 ± 0.04	3.575 ± 0.036	3.254 ± 0.032	2.982 ± 0.03	2.752 ± 0.027

CCCCCC[n+]1ccn(C)c1.O=S(=O)([N-]S(=O)(=O)C(F)(F)F)C(F)(F)F + CN(C)C=O
298.15 K, 100 kPa
Conditions	electrical conductivity [S/m]
x1 = 0.06572	0.9 ± 0.1
x1 = 0.09821	1.1 ± 0.1
x1 = 0.1404	1.2 ± 0.1
x1 = 0.1968	1.4 ± 0.2
x1 = 0.275	1.2 ± 0.1

CCCCCC[n+]1ccn(C)c1.O=S(=O)([N-]S(=O)(=O)C(F)(F)F)C(F)(F)F + CN(CCO)CCO
101 kPa
Conditions	viscosity [mPa·s]
303.15 K, x2 = 0	58.3 ± 2
303.15 K, x2 = 0.801	49.3 ± 2.5
308.15 K, x2 = 0.0989	45.6 ± 2.3
308.15 K, x2 = 0.3999	34 ± 1.7
313.15 K, x2 = 0.3999	31.4 ± 1.6
313.15 K, x2 = 0.6075	30 ± 1.5
313.15 K, x2 = 0.899	36.2 ± 1.9
318.15 K, x2 = 0.7049	25.3 ± 1.3
323.15 K, x2 = 0.2977	24.1 ± 1.2
323.15 K, x2 = 0.7049	22.9 ± 1.2

CCCCCC[n+]1ccn(C)c1.O=S(=O)([N-]S(=O)(=O)C(F)(F)F)C(F)(F)F + CO
298.15 K, 100 kPa
Conditions	electrical conductivity [S/m]
x1 = 0.02978	1.7 ± 0.2
x1 = 0.04557	2.1 ± 0.2
x1 = 0.06683	2.3 ± 0.2
x1 = 0.09663	2.2 ± 0.2
x1 = 0.1426	1.9 ± 0.2

CCCCCCCC[P+](CC)(CC)CC.O=[N+]([O-])c1c[n-]cn1 + COCCOCCOCCOCCOC
viscosity [mPa·s], 100 kPa
Conditions	x1 = 0.599	x1 = 0.699	x1 = 0.9	x1 = 1
278.15 K	125 ± 4	210 ± 8	–	1270 ± 91
288.15 K	–	114 ± 3	–	569 ± 33
298.15 K	–	–	180 ± 7	–
